The results in this text go back to US10059699B2, “Tetrahydroquinoline derivatives as bromodomain inhibitors” (GlaxoSmithKline Intellectual Property (No.2) Limited, priority 2014, dated 2018).

Like-named read-outs stand apart in the source and are kept apart here. Marks after values point to notes of the source that are not given here.

For data set [1], the system named is NUT midline carcinoma cells (11060). In words: Cancer cell line proliferation assay, 11060. In kind it is cell-based. The following applies: 11060 cells, 72 hours, CellTiter Glo, n = 3. On the procedure:
(§1) The impact of the compound of Examples 7 and 14 on cancer cell proliferation was determined using patient derived NUT midline carcinoma cells (11060), multiple myeloma cells (OPM-2, DSMZ) and biphenotypic B myelomonocytic leukaemia cells (MV-4-11, ATCC) in a 72 hour proliferation assay. 11060 and OPM-2 cells were maintained in RPMI 1640 medium (Invitrogen) supplemented with 10% HI-FBS (Heat-Inactivated Fetal Bovine Serum, Hyclone) and 2 mM L-glutamine (Invitrogen) at 37° C. and an atmosphere of 5% CO2. MV-4-11 cells were maintained in IMDM media supplemented with 10% HI-FCS, 2 mM L-glutamine, 1× Non-essential amino acids (Invitrogen) and 1× sodium pyruvate (1 mM) (Invitrogen). Cells were diluted to 1.11×10^5 cells/mL and 90 μL/well plated into black sided, clear bottomed 96 well tissue culture plates (Corning), using growth media supplemented with penicillin/streptomycin (Invitrogen). Cells were incubated overnight at 37° C. and in one plate, ATP levels were measured using the CellTiter Glo assay (Promega) according to the manufacturer's instructions, to give a baseline reading (t=0). 3-fold serial dilutions of compounds ranging from 6 mM to 0.3 μM were prepared in 100% DMSO. The DMSO dilution series was diluted 20-fold in growth media before 10 μl of the resulting dilutions were added to the appropriate wells of the remaining cell plates. The final compound concentrations in the wells ranged from 30 μM to 1.5 nM in 0.5% DMSO. Cells were incubated with compounds for 72 hours before assaying for ATP content using CellTiter Glo (t=72). CellTiter Glo data from each t=72 time point was normalised to the relevant t=0 time point data, and expressed as % t=0.

Data set [2] has as its system multiple myeloma cells (OPM-2). Kind of data set: Cancer cell line proliferation assay, OPM-2. In kind it is cell-based. To be noted: Homo sapiens, OPM-2 cells, 72 hours, CellTiter Glo, n = 2. How it is done: as §1
The test system of another data set is IL-6. Kind of data set: LPS induced secretion of IL-6 from whole blood. Format: cell-based. To be noted: human whole blood, LPS 200 ng/mL, n=6; read-out: pIC50, LPS induced IL-6 secretion (converted). The source says: Activation in whole blood of predominantly monocytic cells by agonists of toll-like receptors such as bacterial lipopolysaccharide (LPS) results in production of key inflammatory mediators, including IL-6. Such pathways are widely considered to be central to the pathophysiology of a range of auto-immune and inflammatory disorders.
Human Whole Blood from 2 donors (n=2) is collected using Sodium heparin as anti-coagulent (Wockhardt cat# FP1712) (10 units of heparin/mL of blood). Compounds were prepared as [10 mM] DMSO stocks and then diluted such that the top starting concentration was [1.4 mM] followed by 8×3-fold dilutions in DMSO. Final assay concentrations start at [10 μM] for all compounds. 1 μL diluted compound was added per well in a 96-well U bottom plate. 1 μL DMSO only was added to column 10 (+ve control) and 1-((2S,4R)-2-methyl-4-(phenylamino)-6-(4-(piperidin-1-ylmethyl)phenyl)-3,4-dihydroquinolin-1(2H)-yl)ethanone (for a preparation see Compound 28, J. Med. Chem. 2014, 57, 8111-8131, 1 μL, 1.4 mM) added to column 11 (−ve control). […] 150 μL of 2×MSD Read Buffer T (stock 4×MSD Read Buffer T was diluted 50:50 with de-ionised water) was then added to each well and the plates read on the MSD Sector Imager 6000. Concentration response curves for each compound were generated from the data using internal XC50 analysis and an IC50 value was calculated.

A further data set has as its target cytochrome P450 3A4 (Homo sapiens, UniProt P08684). In words: Cytochrome P450 3A4 metabolism dependent inhibition. In kind it is in vitro ADME.
For a further data set, the system named is NMC11060 cells. In words: Mouse xenograft tumour assay (NMC). Format: in vivo. To be noted: QD for 21 days, NOD/SCID mouse, day 21. How it is done:
1×10^7 NMC11060 cells, in 200 μl of 75% matrigel, were injected subcutaneously into each NOD/SCID mouse. Randomised oral administration of vehicle formulation, 1% Methycellulose (MC), or compound was initiated from the day tumour volume reached between 160-301 mm^3. Tumour volume was then measured every third day until either 21 days post inoculation or tumour volume had surpassed approximately 1000 mm^3.
Tumour growth inhibition=100−mean tumor volume of treatment group/mean tumour volume of control group×100. P values are derived from coefficient of variation analysis using software PASS 12, comparing vehicle against drug treated group. Based on day 21,* p<0.05, **p<0.01 and ***p<0.001

[3] abbreviates: full curve fit, read-out: Cellular Proliferation: pIC50 (converted).
[4] abbreviates: read-out: Cellular Proliferation: gpIC50 (converted).

Chain of cytochrome P450 3A4 (P08684 whole entry): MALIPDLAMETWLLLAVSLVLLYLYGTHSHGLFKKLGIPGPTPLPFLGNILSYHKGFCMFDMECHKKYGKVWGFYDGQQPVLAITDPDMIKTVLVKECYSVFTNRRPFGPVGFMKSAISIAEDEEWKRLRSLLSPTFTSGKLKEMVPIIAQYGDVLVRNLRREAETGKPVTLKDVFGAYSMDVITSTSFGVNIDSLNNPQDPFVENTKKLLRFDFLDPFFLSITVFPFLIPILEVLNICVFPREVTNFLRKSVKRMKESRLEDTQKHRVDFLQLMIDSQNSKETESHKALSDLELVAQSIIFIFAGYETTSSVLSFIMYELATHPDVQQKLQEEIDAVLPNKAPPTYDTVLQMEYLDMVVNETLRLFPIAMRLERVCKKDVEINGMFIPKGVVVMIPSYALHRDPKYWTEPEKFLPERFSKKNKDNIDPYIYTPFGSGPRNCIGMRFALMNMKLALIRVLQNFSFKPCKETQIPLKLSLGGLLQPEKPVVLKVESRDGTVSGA

For the molecule `CC(=O)N1c2ccc(C(N)=O)cc2[C@H](Nc2ncc(Cl)cn2)C[C@@H]1C` [Example 14, (2S,4R)-1-acetyl-4-((5-chloropyrimidin-2-yl)amino)-2-methyl-1,2,3,4-tetrahydroquinoline-6-carboxamide], the IC50 in data set [1] (setting [3]) was 1000 nM; in data set [1] (setting [4]), 631 nM; in data set [2] (setting [3]), 200 nM; in data set [2] (setting [4]), 126 nM; in the data set with IL-6, 200 nM. At cytochrome P450 3A4, the “cytochrome P450 3A4 metabolism dependent inhibition” value is reported as “no cytochrome P450 3A4 metabolism dependent inhibition”. The “% TGI” value was 51* % in the data set on NMC11060 cells (10 mg/kg/day PO) and 93*** % in the data set with NMC11060 cells (30 mg/kg/day PO).
